From the supplement of paper PMC8967900

Legend:
Test in all cases: selective drug sensitivity score (sDSS, relative to normal bone marrow) (sDSS (score)); higher = more potent and effective on the cell line relative to normal bone marrow cells
Conditions in all cases: 72 h
MOLT-4 = test system: MOLT-4
380 = test system: 380
COG-LL-355h = test system: COG-LL-355h
COG-LL-332h = test system: COG-LL-332h
MOLT-14 = test system: MOLT-14
NALM-16 = test system: NALM-16
KARPAS-45 = test system: KARPAS-45
NALM-6 = test system: NALM-6
REH = test system: REH
TANOUE = test system: TANOUE
NALL-1 = test system: NALL-1
JURKAT = test system: JURKAT
P30-OHKUBO = test system: P30-OHKUBO
697 = test system: 697
KASUMI-9 = test system: KASUMI-9
PF-382 = test system: PF-382
TMD5 = test system: TMD5
MHH-CALL-3 = test system: MHH-CALL-3
COG-LL-319h = test system: COG-LL-319h
CCRF-CEM = test system: CCRF-CEM
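Note: ALL cell lines in 384-well plates, five doses spanning 10,000-fold, each plate scaled between vehicle and 100 µmol/L benzalkonium chloride controls, sDSS an adapted area-under-curve metric.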

Row | Compound | selective drug sensitivity score (MOLT-4) | selective drug sensitivity score 380 | selective drug sensitivity score (COG-LL-355h) | selective drug sensitivity score (COG-LL-332h) | selective drug sensitivity score (MOLT-14) | selective drug sensitivity score (NALM-16) | selective drug sensitivity score (KARPAS-45) | selective drug sensitivity score (NALM-6) | selective drug sensitivity score (REH) | selective drug sensitivity score (TANOUE) | selective drug sensitivity score (NALL-1) | selective drug sensitivity score (JURKAT) | selective drug sensitivity score (P30-OHKUBO) | selective drug sensitivity score 697 | selective drug sensitivity score (KASUMI-9) | selective drug sensitivity score (PF-382) | selective drug sensitivity score (TMD5) | selective drug sensitivity score (MHH-CALL-3) | selective drug sensitivity score (COG-LL-319h) | selective drug sensitivity score (CCRF-CEM)
1 | NS(=O)(=O)OC[C@@H]1C[C@@H](n2ccc3c(N[C@H]4CCc5ccccc54)ncnc32)C[C@@H]1O [Pevonedistat] (top concentration 10000 nM) | 14 | 8.5 | 6 | 20.2 | 13.2 | 4.1 | 12.1 | 12.1 | 10.3 | -3.1 | 9.4 | 12.6 | 11.1 | 13.1 | 6.2 | 13.2 | 6.7 | 7.4 | 12.2 | 16.4
2 | Cn1cnc2c(F)c(Nc3ccc(Br)cc3F)c(C(=O)NOCCO)cc21 [Binimetinib] (top concentration 1000 nM) | -2.02 | 1.58 | 5.58 | -2.22 | 4.38 | -0.12 | -1.82 | 5.78 | 4.48 | -0.82 | -2.22 | -2.02 | -2.22 | -1.62 | -0.92 | -1.82 | 2.38 | 7.18 | 2.98 | 1.38
3 | NCC(=O)Nc1ccc(-n2nc(C(F)(F)F)cc2-c2ccc3c(ccc4ccccc43)c2)cc1 (top concentration 25000 nM) | 14.7 | 9.6 | -0.2 | 14.3 | 11.2 | 5.4 | 6.9 | 13.3 | 12.5 | 4.7 | 5 | 15.3 | 7.6 | 10.8 | 8.1 | 8 | -0.2 | -0.2 | 8 | 7.9
4 | CC1(C)CC[C@]2(NC(=O)C(C)(F)F)CC[C@]3(C)[C@H](C(=O)C=C4[C@@]5(C)C=C(C#N)C(=O)C(C)(C)[C@@H]5CC[C@]43C)[C@@H]2C1 [Omaveloxolone] (top concentration 10000 nM) | 2.18 | 10.9 | 4.88 | 3.48 | 1.58 | 4.58 | 1.68 | 2.58 | 2.58 | -0.52 | 3.98 | 0.88 | 0.68 | 4.78 | 1.88 | 1.08 | 1.48 | 10.1 | 10.5 | 0.78
5 | CNc1nc(-c2ccc3c(N)n[nH]c3c2)cc(N2C[C@@H](C(=O)NC3CCCCC3)CC[C@H]2C)n1 (top concentration 10000 nM) | -0.14 | -0.14 | 6.66 | -0.14 | -0.14 | 3.86 | -0.14 | 2.96 | 3.86 | 0.16 | -0.14 | -0.14 | 7.86 | 9.06 | 6.36 | 2.76 | 2.16 | -0.14 | 2.96 | 1.36
6 | CCN(CC)Cc1ccc2cc(COC(=O)Nc3ccc(C(=O)NO)cc3)ccc2c1 [Givinostat] (top concentration 1000 nM) | 2.1 | 6.9 | 5 | -0.3 | 6.8 | -1 | 11.1 | 1.2 | 0.2 | -4.5 | -0.4 | 0.9 | 3.7 | 4.8 | 7.6 | 2.9 | -0.1 | 15.6 | 10.1 | 3.6
7 | CC[C@H](Nc1ncnc2[nH]cnc12)c1nc2cccc(F)c2c(=O)n1-c1ccccc1 [Idelalisib] (top concentration 10000 nM) | -1.36 | 5.74 | 3.14 | 0.04 | -2.16 | -2.16 | 1.54 | 7.24 | 2.74 | -2.16 | 3.54 | -1.76 | 7.94 | 1.84 | 7.54 | -0.36 | 8.84 | 9.44 | 1.74 | 3.64
